Test results published in patent publication US7655800B2, “Crystalline 1H-imidazo[4,5-b]pyridin-5-amine, 7-[5-[(cyclohexylmethylamino)-methyl]-1H-indol-2-yl]-2-methyl, sulfate (1:1), trihydrate and its pharmaceutical uses” (Eisai R & D Management Co., Ltd., priority 2005, dated 2010).
Where a name gives a salt, the structure may show the parent alone.

Columns and labels:
Format in all cases: physicochemical
[1] = Solubility in water of amorphous versus crystalline E6070; conditions: in words
[2] = Hygroscopicity measurements (controlled-atmosphere microbalance, adsorption/desorption isotherm); conditions: for hygroscopicity: general statement, in words
Procedure: Hygroscopicity Measurements: Samples were exposed to various relative humidity (RH) conditions at 25° C. using an automated controlled-atmosphere microbalance, MB-300W (VTI Corporation, FL, USA). In this system, a sample was suspended in an isothermal chamber at 25° C., and the RH was regulated from 5% to 95% by adjusting the relative flow rates of dry (0% RH) and moist (100% RH) nitrogen. The weight of the sample was measured every 2 min with the microbalance. The weight stability criterion employed for the equilibrium was that the maximum weight change for each measurement was less than 0.2% (w/w).

[3] = Physical stability of crystalline E6070 under stressed storage (XRD, TG-DTA)
Procedure: Crystalline E6070 was placed on the sample platform of an X-ray powder diffractometer (RINT-2000, Rigaku, Japan) and analyzed under the conditions shown in Table 3.
Thermal Analyses: Using a Rigaku Thermoflex TAS20 TG8101D (Rigaku, Tokyo, Japan) therogravimetric-differential thermal analyses (TG-DTA) were performed under the measurement conditions in Table 9. The temperature axis and the cell constant were calibrated with indium. The solid sample (1-5 mg) was accurately weighed into an open aluminum pan and then heated.
The physical stability of crystalline E6070 was evaluated under the following two conditions: 60° C. for a month and 40° C./75% RH (open) for a month.

[4] = 40° C./75% RH (open) for a month

- solubility in water [1]: much less soluble in water
- hygroscopicity ([2]; listed as Crystalline E6070, trihydrate): very low hygroscopicity
- hygroscopicity ([2]; trihydrate): non-hygroscopic
- TG-DTA thermogram after storage compared with initial [3, 4]: same TG-DTA thermogram as the initial
- change in XRD pattern after storage [3, 4]: no change
- TG-DTA thermogram after storage compared with initial ([3]; 60° C. for a month): same TG-DTA thermogram as the initial
- change in XRD pattern after storage ([3]; 60° C. for a month): no change
- physical stability in the solid state (conclusion) ([3]; both stressed conditions, one month): physically stable in the solid state
Compound: Cc1nc2nc(N)cc(-c3cc4cc(CN(C)C5CCCCC5)ccc4[nH]3)c2[nH]1 [crystalline E6070, 1H-imidazo[4,5-b]pyridin-5-amine, 7-[5-[(cyclohexylmethylamino)-methyl]-1H-indol-2-yl]-2-methyl, sulfate (1:1), trihydrate]
- moisture uptake or loss on exposure to controlled humidities ([2]; from 0% to 93% RH at 25° C.): not found to take up or lose any moisture
